How the values were obtained:
TBK1 = biological target: T1, TBK1 (Homo sapiens, UniProt Q9UHD2); assay: TBK1 inhibition, ADP-Glo Kinase Assay; format: biochemical; details: luminometer
T1 construct: purchased Promega V3991
T1 sequence (Q9UHD2 1-729): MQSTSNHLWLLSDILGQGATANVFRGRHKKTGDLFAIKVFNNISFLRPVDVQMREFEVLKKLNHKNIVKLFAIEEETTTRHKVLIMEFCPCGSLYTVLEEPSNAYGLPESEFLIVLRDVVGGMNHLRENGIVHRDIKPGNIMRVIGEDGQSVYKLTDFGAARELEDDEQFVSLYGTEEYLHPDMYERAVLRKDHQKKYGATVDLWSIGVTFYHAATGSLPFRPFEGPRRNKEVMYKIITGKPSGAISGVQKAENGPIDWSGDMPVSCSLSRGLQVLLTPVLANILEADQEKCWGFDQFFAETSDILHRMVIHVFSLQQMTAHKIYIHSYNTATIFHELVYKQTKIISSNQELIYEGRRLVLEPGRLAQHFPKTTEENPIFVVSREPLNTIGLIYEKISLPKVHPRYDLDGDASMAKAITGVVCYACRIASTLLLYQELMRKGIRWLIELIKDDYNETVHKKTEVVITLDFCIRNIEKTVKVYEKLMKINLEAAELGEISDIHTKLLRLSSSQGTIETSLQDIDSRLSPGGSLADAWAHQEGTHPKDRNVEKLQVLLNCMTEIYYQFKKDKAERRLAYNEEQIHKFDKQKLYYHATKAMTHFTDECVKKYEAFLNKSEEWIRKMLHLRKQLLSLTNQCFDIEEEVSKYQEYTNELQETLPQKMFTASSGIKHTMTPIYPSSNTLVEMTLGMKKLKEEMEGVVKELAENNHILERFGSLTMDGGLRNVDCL
Protocol: (§1) Inhibition activities on TNIK, IKKε and TBK1 were evaluated using the compounds of Examples 1 to 254.
(§2) The inhibition activities on TNIK, IKKε and TBK1 were measured by a luminometer, TNIK/IKKε/TBK1 Kinase Enzyme System (Promega, Ca# V4158; Invitrogen, PR8031B, Promega, Ca# V3991) and ADP-Glo Kinase Assay using ADP-Glo™ Kinase Analysis Kit (Promega, Ca# V9101) and a kinase reaction buffer [40 mM Tris(pH 7.5), 20 mM MgCl2, 0.1 mg/mL BSA] in accordance with the manufacturer's protocol.

IKKε = biological target: T2, IKKε (Homo sapiens, UniProt Q14164); assay: IKKε inhibition, ADP-Glo Kinase Assay; format: biochemical; details: luminometer
T2 construct: purchased Invitrogen PR8031B
T2 sequence (Q14164 1-716): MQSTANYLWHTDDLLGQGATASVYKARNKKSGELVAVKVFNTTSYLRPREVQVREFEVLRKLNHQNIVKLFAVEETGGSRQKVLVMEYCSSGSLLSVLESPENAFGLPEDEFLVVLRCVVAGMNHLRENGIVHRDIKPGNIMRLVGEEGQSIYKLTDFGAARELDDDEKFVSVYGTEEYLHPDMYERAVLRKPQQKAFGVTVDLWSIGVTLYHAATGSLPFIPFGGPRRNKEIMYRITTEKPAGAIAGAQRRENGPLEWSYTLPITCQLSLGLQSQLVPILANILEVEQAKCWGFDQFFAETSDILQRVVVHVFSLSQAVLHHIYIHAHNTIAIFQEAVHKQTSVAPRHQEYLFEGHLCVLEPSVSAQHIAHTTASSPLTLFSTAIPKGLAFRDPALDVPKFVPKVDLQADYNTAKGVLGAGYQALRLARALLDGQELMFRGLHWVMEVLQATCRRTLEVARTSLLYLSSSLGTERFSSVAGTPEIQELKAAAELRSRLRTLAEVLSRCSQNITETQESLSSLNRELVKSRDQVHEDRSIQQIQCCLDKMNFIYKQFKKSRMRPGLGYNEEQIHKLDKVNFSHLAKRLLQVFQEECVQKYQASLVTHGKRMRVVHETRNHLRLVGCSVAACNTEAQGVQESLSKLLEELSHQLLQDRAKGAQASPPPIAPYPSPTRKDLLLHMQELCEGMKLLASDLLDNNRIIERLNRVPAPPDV
Protocol: as §1, §2

| IC50 (TBK1) | IC50 (IKKε) | SMILES |
| --- | --- | --- |
| 0.0003 µM | 0.0038 µM | O=C(NCc1cccs1)c1ccc2[nH]nc(NC(=O)c3ccc(N4CCNCC4)cc3)c2c1 [Example 171, 3-(4-(Piperazin-1-yl)benzamido)-N-(thiophen-2-ylmethyl)-1H-indazole-5-carboxamide] |
| 0.0011 µM | 0.0032 µM | O=C(Nc1n[nH]c2ccc(C(=O)NC3(c4cccs4)CC3)cc12)c1ccc(N2CCOCC2)cc1 [Example 48, 3-(4-Morpholinobenzamido)-N-(1-(thiophen-2-yl)cyclopropyl)-1H-indazole-5-carboxamide] |
| 0.069 µM | 0.25 µM | O=C(Cc1cccs1)Nc1ccc2[nH]nc(NC(=O)c3ccc(N4CCOCC4)cc3)c2c1 [Example 144, 4-Morpholino-N-(5-(2-(thiophen-2-yl)acetamido)-1H-indazol-3-yl)benzamide] |
| 0.0028 µM | 0.015 µM | CCC(NC(=O)c1ccc2[nH]nc(NC(=O)c3ccc(N4CCC(O)CC4)cc3)c2c1)c1cccs1 (centres unmarked) [Example 108, 3-(4-(4-Hydroxypiperidin-1-yl)benzamido)-N-(1-(thiophen-2-yl)propyl)-1H-indazole-5-carboxamide] |
| 0.1 µM | 0.34 µM | O=C(Nc1n[nH]c2ccc(C(=O)NC(c3ccccn3)C3CC3)cc12)c1ccc(N2CCOCC2)cc1 (centres unmarked) [Example 139, N-(Cyclopropyl(pyridin-2-yl)methyl)-3-(4-morpholinobenzamido)-1H-indazole-5-carboxamide] |
| 0.02 µM | 0.11 µM | O=C(NCC1CCCCC1)c1ccc2[nH]nc(NC(=O)c3ccc(N4CCOCC4)cc3)c2c1 [Example 88, N-(Cyclohexylmethyl)-3-(4-morpholinobenzamido)-1H-indazole-5-carboxamide] |
| 0.016 µM | 0.069 µM | CCC(NC(=O)c1ccc2[nH]nc(NC(=O)c3ccc(N4CCN(C)CC4)cc3)c2c1)c1nccs1 (centres unmarked) [Example 84, 3-(4-(4-Methylpiperazin-1-yl)benzamido)-N-(1-(thiazol-2-yl)propyl)-1H-indazole-5-carboxamide] |
| 0.012 µM | 0.033 µM | CC(C)(NC(=O)c1ccc2[nH]nc(NC(=O)c3ccc(N4CCOCC4)cc3)c2c1)c1cccs1 [Example 134, 3-(4-Morpholinobenzamido)-N-(2-(thiophen-2-yl)propan-2-yl)-1H-indazole-5-carboxamide] |
| 0.66 µM | 4.47 µM | O=C(Nc1n[nH]c2ccc(CNCc3cccs3)cc12)c1ccc(N2CCOCC2)cc1 [Example 123] |

Further lines, the compound ahead of its results:

| SMILES | IC50 (TBK1) | IC50 (IKKε) |
| --- | --- | --- |
| Cc1cc(N2CCN(C)CC2)ccc1C(=O)Nc1n[nH]c2ccc(C(=O)NCc3cccs3)cc12 [Example 74, 3-(2-Methyl-4-(4-methylpiperazin-1-yl)benzamido)-N-(thiophen-2-ylmethyl)-1H-indazole-5-carboxamide] | 0.0044 µM | 0.079 µM |
| C[C@H]1CN(c2ccc(C(=O)Nc3n[nH]c4ccc(C(=O)NC5(c6ccccc6)CC5)cc34)cc2)CCN1 [Example 76, (S)-3-(4-(3-Methylpiperazin-1-yl)benzamido)-N-(1-phenylcyclopropyl)-1H-indazole-5-carboxamide] | 0.0046 µM | 0.016 µM |
| Cc1cc(C(=O)Nc2n[nH]c3ccc(C(=O)NCc4cccs4)cc23)ccc1N1CCN(C)CC1 [Example 79, 3-(3-Methyl-4-(4-methylpiperazin-1-yl)benzamido)-N-(thiophen-2-ylmethyl)-1H-indazole-5-carboxamide] | 0.015 µM | 0.22 µM |
| CN1CCN(c2ccc(C(=O)Nc3n[nH]c4ccc(C(=O)NCc5ccco5)cc34)cc2)CC1 [Example 51, N-(Furan-2-ylmethyl)-3-(4-(4-methylpiperazin-1-yl)benzamido)-1H-indazole-5-carboxamide] | 0.0081 µM | 0.064 µM |
| O=C(Nc1n[nH]c2ccc(C(=O)NC3(c4cccnc4)CC3)cc12)c1ccc(F)cc1 [Example 217, 3-(4-Fluorobenzamido)-N-(1-(pyridin-3-yl)cyclopropyl)-1H-indazole-5-carboxamide] | 0.52 µM | 0.65 µM |
| CN1CCN(c2ccc(C(=O)Nc3n[nH]c4ccc(C(=O)NCc5cnco5)cc34)cc2)CC1 [Example 172, 3-(4-(4-Methylpiperazin-1-yl)benzamido)-N-(oxazol-5-ylmethyl)-1H-indazole-5-carboxamide] | 0.035 µM | 0.31 µM |
| CN1CCN(c2ccc(C(=O)Nc3n[nH]c4ccc(C(=O)NC(CO)c5cccs5)cc34)cc2)CC1 (centres unmarked) [Example 45, N-(2-Hydroxy-1-(thiophen-2-yl)ethyl)-3-(4-(4-methylpiperazin-1-yl)benzamido)-1H-indazole-5-carboxamide] | 0.0021 µM | 0.014 µM |
| N#CC1(NC(=O)c2ccc3[nH]nc(NC(=O)c4ccc(F)cc4)c3c2)CC1 [Example 16, N-(1-Cyanocyclopropyl)-3-(4-fluorobenzamido)-1H-indazole-5-carboxamide] | 0.39 µM | 0.91 µM |
| CN1CCN(c2ccc(C(=O)Nc3n[nH]c4ccc(C(=O)NCc5ccc(F)cc5)cc34)cc2)CC1 [Example 189, N-(4-Fluorobenzyl)-3-(4-(4-methylpiperazin-1-yl)benzamido)-1H-indazole-5-carboxamide] | 0.019 µM | 0.13 µM |
| Cc1cc(CNC(=O)c2ccc3[nH]nc(NC(=O)c4ccc(N5CCN(C)CC5)cc4)c3c2)ccn1 [Example 70, 3-(4-(4-Methylpiperazin-1-yl)benzamido)-N-((2-methylpyridin-4-yl)methyl)-1H-indazole-5-carboxamide] | 0.18 µM | 1.5 µM |
| Cc1ccc(CNC(=O)c2ccc3[nH]nc(NC(=O)c4ccc(F)cc4)c3c2)s1 [Example 19, 3-(4-Fluorobenzamido)-N-((5-methylthiophen-2-yl)methyl)-1H-indazole-5-carboxamide] | 0.49 µM | 2.91 µM |
| CC1CN(c2ccc(C(=O)Nc3n[nH]c4ccc(C(=O)NCc5cccs5)cc34)cc2)CC(C)O1 (centres unmarked) [Example 92, 3-(4-(2,6-Dimethylmorpholino)benzamido)-N-(thiophen-2-ylmethyl)-1H-indazole-5-carboxamide 2,2,2-trifluoroacetate] | 0.007 µM | 0.065 µM |
| CCC(NC(=O)c1ccc2[nH]nc(NC(=O)c3ccc(N4C[C@@H](C)N[C@@H](C)C4)cc3)c2c1)c1cccs1 (stereo partly drawn) [Example 99, 3-(4-((3R,5S)-3,5-Dimethylpiperazin-1-yl)benzamido)-N-(1-(thiophen-2-yl)propyl)-1H-indazole-5-carboxamide 2,2,2-trifluoroacetate] | 0.0027 µM | 0.014 µM |
| CN(C)CCNc1ccc(C(=O)Nc2n[nH]c3ccc(C(=O)NCc4cccs4)cc23)cc1 [Example 158, 3-(4-((2-(Dimethylamino)ethyl)amino)benzamido)-N-(thiophen-2-ylmethyl)-1H-indazole-5-carboxamide] | 0.0087 µM | 0.096 µM |
| CC(C)CCNC(=O)c1ccc2[nH]nc(NC(=O)c3ccc(N4CCN(C)CC4)cc3)c2c1 [Example 114, N-Isopentyl-3-(4-(4-methylpiperazin-1-yl)benzamido)-1H-indazole-5-carboxamide 2,2,2-trifluoroacetate] | 0.082 µM | 0.41 µM |
| CN1CCN(c2ccc(C(=O)Nc3n[nH]c4ccc(C(=O)NCc5nccs5)cc34)cc2)CC1 [Example 103, 3-(4-(4-Methylpiperazin-1-yl)benzamido)-N-(thiazol-2-ylmethyl)-1H-indazole-5-carboxamide 2,2,2-trifluoroacetate] | 0.02 µM | 0.44 µM |

From patent US10294207B2, “Pyrazole derivatives as TNIK, IKKϵ and TBK1 inhibitor and pharmaceutical composition comprising same” (GREEN CROSS CORPORATION, priority 2015, dated 2019)
